From US6476079B1, “Devices for the delivery of drugs having antiprogestinic properties” (priority 1999, dated 2002)

Assay: Permeation test of antiprogestins through elastomer membranes (two-compartment diffusion cell)
Type: physicochemical
Conditions: 37° C.
Experimental: The assay apparatus described in the publication Yie W. Chien, Transdermal Controlled Systemic Medications, Marcel Dekker Inc., New York and Basel 1987, page 173, was used in the tests.
The drug fluxes (permeations) through membranes were measured with a two-compartment diffusion cell at 37° C. (Side-Bi-Side™ diffusion cell, Crown Glass Company). The apparatus consisted of two concentric cells (donor and receptor compartments) that were separated by the elastomer membrane to be investigated. […] A drug solution and solvent (without drug) was added into the donor and the receptor compartments. At each predetermined time interval, samples were withdrawn from the receptor compartment and replaced with the same volume of solvent. The amount of the drug that permeated through the membrane was measured by HPLC. In all measurements, the thickness (0.4 mm) of the membrane and the surface area of the membranes were constant.
In the tests described below, the permeation rates of two different drugs through a 0.4-mm-thick elastomer membrane were measured by using the assay apparatus described above. The tables below show the effect of the concentration of PEO groups (% by weight of the said compositions) on the permeation rates of the different drugs for elastomers prepared from different composition types. The tables show the relative permeation as compared with a commercial crosslinked dimethyl siloxane-vinyl methyl siloxane elastomer (Mn approximately 400,000 g/mol) containing a silica filler.

[1] = composition type A, PEO concentration 4.7 % by weight, 0.4 mm membrane, relative to reference elastomer
[2] = composition type A, PEO concentration 5.1 % by weight, 0.4 mm membrane, relative to reference elastomer
[3] = reference membrane: commercial crosslinked dimethyl siloxane-vinyl methyl siloxane elastomer with silica filler, PEO 0 % by weight, 0.4 mm
[4] = composition type B, PEO concentration 3.1 % by weight, 0.4 mm membrane, relative to reference elastomer
[5] = composition type B, PEO concentration 4.1 % by weight, 0.4 mm membrane, relative to reference elastomer
[6] = composition type B, PEO concentration 5.0 % by weight, 0.4 mm membrane, relative to reference elastomer
[7] = composition type B, PEO concentration 7.5 % by weight, 0.4 mm membrane, relative to reference elastomer
[8] = composition type B, PEO concentration 9.8 % by weight, 0.4 mm membrane, relative to reference elastomer

Molecule	Relative permeation [7]	Relative permeation (composition type A, PEO concentration 5.3 % by weight, 0.4 mm membrane, relative to reference elastomer)	Relative permeation [1]	Relative permeation [2]	Relative permeation [3]	Relative permeation [4]	Relative permeation [5]	Relative permeation [6]	Relative permeation [8]	Relative permeation (composition type B, PEO concentration 1.4 % by weight, 0.4 mm membrane, relative to reference elastomer)
COC[C@]1(OC)CC[C@H]2[C@@H]3CCC4=CC(=O)CCC4=C3[C@@H](c3ccc(/C=N/O)cc3)C[C@@]21C [Compound 1, 4-[17β-methoxy-17α-(methoxymethyl)-3-oxoestra-4,9-dien-11β-yl]benzaldehyde-1-(E)-oxime]			3.5	5.3	1					
CCNC(=O)ON=Cc1ccc(C2CC3(C)C(CCC3(COC)OC)C3CCC4=CC(=O)CCC4=C23)cc1 (stereo not drawn) [Compound 2, 4-[17β-Methoxy-17α-(methoxymethyl)-3-oxoestra-4,9-dien-11β-yl]benzaldehyde-1-[O-(ethylamino)carbonyl]oxime]	11.5		4.1	7.6	1	3.7	4.1	5.8	17.3	
CCSC(=O)O/N=C/c1ccc([C@H]2C[C@@]3(C)[C@@H](CC[C@@]3(COC)OC)[C@@H]3CCC4=CC(=O)CCC4=C32)cc1 [Compound 3]					1				6.4	2.1
CC(=O)c1ccc([C@H]2C[C@@]3(C)[C@@H](CC[C@@]3(O)C(F)(F)C(F)(F)F)[C@@H]3CCC4=CC(=O)CCC4=C32)cc1 [Compound 4, 11β-(4-Acetylphenyl)-17β-hydroxy-17α-(1,1,2,2,2-pentafluoroethyl)estra-4,9-dien-3-one]	16.4				1				27.6	

Second part, led by results:

Relative permeation [7]	Relative permeation (composition type A, PEO concentration 5.3 % by weight, 0.4 mm membrane, relative to reference elastomer)	Molecule	Relative permeation [1]	Relative permeation [2]	Relative permeation [3]	Relative permeation [4]	Relative permeation [5]	Relative permeation [6]	Relative permeation [8]	Relative permeation (composition type B, PEO concentration 1.4 % by weight, 0.4 mm membrane, relative to reference elastomer)
18.7		CN(C)c1ccc([C@H]2C[C@@]3(C)[C@@H](CC[C@@]3(O)/C=C\CO)[C@@H]3CCC4=CC(=O)CC[C@@H]4[C@H]32)cc1 [Compound 5, Estr-4-en-3-one, 11-[4-(dimethylamino)phenyl]-17-hydroxy-17-(3-hydroxy-1-propenyl)-,[11.beta,17β,17(Z)]-(9CI)]	4.1		1	6.0	6.7	10.7	37.2	
	5.9	(Z)-6′-(4-Cyanophenyl)-17-β-hydroxy-17-α-(3-isovaleryloxy-1-propenyl))-9,11-α-diydro-4′H-naphth [3′,2′,1′:10,9,11]estr-4-en-3-one [Compound 6]	2.9		1					
